This is an account of results in ChEMBL document CHEMBL1136347, “Synthesis of 17beta-estradiol platinum(II) complexes: biological evaluation on breast cancer cell lines” (Bioorg Med Chem Lett, 2003).

Holding throughout (type): functional, cell-based
In one assay the test system is MCF7. The assay is described as follows: In vitro inhibition of estrogen receptor positive human breast cancer MCF-7 cell proliferation.
The subject of another assay is Hs-578T. The assay is described as follows: In vitro inhibition of estrogen receptor negative human breast cancer Hs 578.T cell proliferation.
For another assay, the system named is MDA-MB-231. As to the kind of experiment: In vitro inhibition of estrogen receptor negative human breast cancer MDA-MB-231 cell proliferation.
The next assay relates to ZR-75-1. As to the kind of experiment: In vitro inhibition of estrogen receptor positive human breast cancer ZR-75-1 cell proliferation.

pIC50: −log10 of the molar value. Where only a bound is given, the exact number is not on record here.

Turning to Cisplatin complex [listing 1 of 8 here], the pIC50 in the assay with MCF7 was 5.37; in the assay with Hs-578T, 5.39; in the assay on MDA-MB-231, 5.32; with ZR-75-1, 5.30.
The like results for Cisplatin complex [listing 2 of 8 here] were, in that order, 5.40, 5.46, 5.33 and 5.60.
As to Cisplatin complex [listing 3 of 8 here], the pIC50 with MCF7 is 4.87; in the assay on Hs-578T it was 4.91; in the assay with MDA-MB-231, 5.04; with ZR-75-1, 5.03.
As to Cisplatin complex [listing 4 of 8 here], the pIC50 in the assay on MCF7 is under 4.40; in the assay with Hs-578T, under 4.40; in the assay on MDA-MB-231, under 4.40; in the assay with ZR-75-1 it was 4.50.
Cisplatin complex [listing 5 of 8 here]: the figures for the pIC50 in the assay with Hs-578T, in the assay with MDA-MB-231 and with ZR-75-1 were 4.76, 4.90 and 4.85, respectively.
On to Cisplatin complex [listing 6 of 8 here], for which the pIC50 is 5.24 in the assay on MCF7, 5.57 in the assay on Hs-578T, 5.07 in the assay with MDA-MB-231 and 5.38 with ZR-75-1.
Regarding Cisplatin complex [listing 7 of 8 here], the negative logarithm of the IC50 (pIC50) was 4.70 in the assay with MCF7, 4.64 in the assay with Hs-578T and 4.80 in the assay with ZR-75-1.
Turning to Cisplatin complex [listing 8 of 8 here], the pIC50 was 4.50 in the assay with MCF7, 4.55 with Hs-578T, 4.73 with MDA-MB-231 and 4.79 in the assay on ZR-75-1.
Turning to CISPLATIN, the pIC50 in the assay on MCF7 is 4.78; in the assay with Hs-578T, 5.04; with MDA-MB-231, 4.90; in the assay on ZR-75-1 it was 5.03.

One may read the pIC50 as the negative decadic logarithm of the IC50, by convention in mol/L. Read a low pIC50 as a large IC50.
